In PubChem BioAssay AID1963960 (Molecular Pharmacology Branch, DTP, NCI, 2024):

Test system: MDA-MB-468 spheroids with HUVEC/MSC, viability
Assay: Anticancer human tumor MDA-MB-468 cell line growth inhibition [PI3K];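 further: spheroids exposed to agents for seven days before readout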;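 on viability, T/C: 100% = DMSO vehicle control viability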
Settings: for IC50: curve of first compound; for viability, T/C: stronger effect = lower value
Summary of the method: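 Agents were dosed from a top concentration near clinical Cmax (otherwise 10 microM) in half-log decrements, alone or combined with PI3K inhibitors. The spheroids contain tumor cells plus endothelial (HUVEC) and MSC stroma; viability is measured.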

[1] = second compound 0.00316 µM, first compound 0.0316 µM
[2] = second compound 0.00316 µM, first compound 0.1 µM
[3] = second compound 0.00316 µM, first compound 0.316 µM
[4] = second compound 0.00316 µM, first compound 1 µM
[5] = second compound 0.00316 µM, first compound 3.16 µM
[6] = second compound 0.00316 µM, first compound 10 µM
[7] = second compound 0.01 µM, first compound 0.0316 µM
[8] = second compound 0.01 µM, first compound 0.1 µM
[9] = second compound 0.01 µM, first compound 0.316 µM
[10] = second compound 0.01 µM, first compound 1 µM
[11] = second compound 0.01 µM, first compound 3.16 µM
[12] = second compound 0.01 µM, first compound 10 µM
[13] = second compound 0.0316 µM, first compound 0.0316 µM
[14] = second compound 0.0316 µM, first compound 0.1 µM
[15] = second compound 0.0316 µM, first compound 0.316 µM
[16] = second compound 0.0316 µM, first compound 1 µM
[17] = second compound 0.0316 µM, first compound 3.16 µM
[18] = second compound 0.0316 µM, first compound 10 µM
[19] = second compound 0.1 µM, first compound 0.0316 µM
[20] = second compound 0.1 µM, first compound 0.1 µM
[21] = second compound 0.1 µM, first compound 0.316 µM
[22] = second compound 0.1 µM, first compound 1 µM
[23] = second compound 0.1 µM, first compound 3.16 µM
[24] = second compound 0.1 µM, first compound 10 µM
[25] = second compound 0.316 µM, first compound 0.0316 µM
[26] = second compound 0.316 µM, first compound 0.1 µM
[27] = second compound 0.316 µM, first compound 0.316 µM
[28] = second compound 0.316 µM, first compound 1 µM
[29] = second compound 0.316 µM, first compound 3.16 µM
[30] = second compound 0.316 µM, first compound 10 µM
[31] = second compound 1 µM, first compound 0.0316 µM
[32] = second compound 1 µM, first compound 0.1 µM
[33] = second compound 1 µM, first compound 0.316 µM
[34] = second compound 1 µM, first compound 1 µM
[35] = second compound 1 µM, first compound 3.16 µM
[36] = second compound 1 µM, first compound 10 µM

In the case of Cn1ncc(Cl)c1-c1cc(C(=O)NC(CN)Cc2cccc(F)c2)sc1Cl (centres undefined) + COc1c(OCCCN2CCOCC2)ccc2c3n(c(=NC(=O)c4cnc(N)nc4)nc12)CCN3, the IC50 (second compound 0.00316 µM) is reported as 331 nM, the IC50 (second compound 0.01 µM) is reported as 236 nM and the IC50 (second compound 0.0316 µM) is reported as 152 nM. The IC50 (second compound 0.1 µM) was < 31.6 nM, the IC50 (second compound 0.316 µM) was < 31.6 nM and the IC50 (second compound 1 µM) was < 31.6 nM. It also gave a viability, T/C [1] of 78.5%, a viability, T/C [2] of 66.2% and a viability, T/C [3] of 50.1%. The viability, T/C [4] was 36.1%, the viability, T/C [5] was 25.3% and the viability, T/C [6] was 17.2%. For the same compound, the viability, T/C [7] was 71.8%, the viability, T/C [8] was 64.2% and the viability, T/C [9] was 42.7%. The viability, T/C [10] was 33.2%, the viability, T/C [11] was 22.9% and the viability, T/C [12] was 14.6%. For the same compound, the viability, T/C [13] was 66.5%, the viability, T/C [14] was 58.7% and the viability, T/C [15] was 37.2%. It also gave a viability, T/C [16] of 28.5%, a viability, T/C [17] of 22.1% and a viability, T/C [18] of 12.1%. It also gave a viability, T/C [19] of 49.6%, a viability, T/C [20] of 40% and a viability, T/C [21] of 33.9%. The viability, T/C [22] was 25.4%, the viability, T/C [23] was 17.5% and the viability, T/C [24] was 7.31%. It also gave a viability, T/C [25] of 25.1%, a viability, T/C [26] of 21.1% and a viability, T/C [27] of 20.4%. For the same compound, the viability, T/C [28] was 14.9%, the viability, T/C [29] was 12.7% and the viability, T/C [30] was 4.16%. It also gave a viability, T/C [31] of 3.44%, a viability, T/C [32] of 3.28% and a viability, T/C [33] of 3.02%. It also gave a viability, T/C [34] of 3.44%, a viability, T/C [35] of 3.8% and a viability, T/C [36] of 1.32%.

In the case of Cn1nccc1Nc1nccc(-c2ccn(C(CO)c3ccc(Cl)c(F)c3)c(=O)c2)n1 (centres undefined) + COc1c(OCCCN2CCOCC2)ccc2c3n(c(=NC(=O)c4cnc(N)nc4)nc12)CCN3, the IC50 (second compound 0.00316 µM) is reported as > 10000 nM, the IC50 (second compound 0.01 µM) is reported as > 10000 nM and the IC50 (second compound 0.0316 µM) is reported as 7630 nM. The IC50 (second compound 0.1 µM) was 4400 nM, the IC50 (second compound 0.316 µM) was < 31.6 nM and the IC50 (second compound 1 µM) was < 31.6 nM. It also gave a viability, T/C [1] of 90.7%, a viability, T/C [2] of 83% and a viability, T/C [3] of 79.1%. For the same compound, the viability, T/C [4] was 85.3%, the viability, T/C [5] was 81.3% and the viability, T/C [6] was 73.6%. The viability, T/C [7] was 71.1%, the viability, T/C [8] was 86.5% and the viability, T/C [9] was 78.7%. For the same compound, the viability, T/C [10] was 71.8%, the viability, T/C [11] was 77.9% and the viability, T/C [12] was 76.9%. For the same compound, the viability, T/C [13] was 71.3%, the viability, T/C [14] was 68.7% and the viability, T/C [15] was 71.7%. The viability, T/C [16] was 73.9%, the viability, T/C [17] was 61.9% and the viability, T/C [18] was 46%. The viability, T/C [19] was 56.3%, the viability, T/C [20] was 54.9% and the viability, T/C [21] was 52.5%. For the same compound, the viability, T/C [22] was 52.4%, the viability, T/C [23] was 50.9% and the viability, T/C [24] was 48.6%. For the same compound, the viability, T/C [25] was 24.6%, the viability, T/C [26] was 23.3% and the viability, T/C [27] was 23.3%. It also gave a viability, T/C [28] of 24.9%, a viability, T/C [29] of 26% and a viability, T/C [30] of 19.9%. It also gave a viability, T/C [31] of 3.06%, a viability, T/C [32] of 2.27% and a viability, T/C [33] of 2.37%. It also gave a viability, T/C [34] of 2.51%, a viability, T/C [35] of 1.79% and a viability, T/C [36] of 0.85%.
